According to PubChem BioAssay (NCI):
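Each compound was tested at five concentrations against cells in 96-well plates for 48 hours. Here, GI50 denotes the concentration required for 50% inhibition of growth. TGI: total growth inhibition.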

Tests used:
Assay in all cases: NCI tumour cell line growth inhibition, 48 h
786-0 renal = system: 786-0 renal
A498 renal = system: A498 renal
A549 NSCLC = system: A549 NSCLC
ACHN renal = system: ACHN renal
BT-549 breast = system: BT-549 breast
CAKI-1 renal = system: CAKI-1 renal
CCRF-CEM leukemia = system: CCRF-CEM leukemia
COLO 205 colon = system: COLO 205 colon
DU-145 prostate = system: DU-145 prostate
EKVX NSCLC = system: EKVX NSCLC
HCC-2998 colon = system: HCC-2998 colon
HCT-116 colon = system: HCT-116 colon
HCT-15 colon = system: HCT-15 colon
HL-60(TB) leukemia = system: HL-60(TB) leukemia
HOP-62 NSCLC = system: HOP-62 NSCLC
HOP-92 NSCLC = system: HOP-92 NSCLC
HS 578T breast = system: HS 578T breast
HT29 colon = system: HT29 colon
IGROV1 ovarian = system: IGROV1 ovarian
K-562 leukemia = system: K-562 leukemia
KM12 colon = system: KM12 colon
LOX IMVI melanoma = system: LOX IMVI melanoma
M14 melanoma = system: M14 melanoma
MALME-3M melanoma = system: MALME-3M melanoma
MCF7 breast = system: MCF7 breast
MDA-MB-231 breast = system: MDA-MB-231 breast
MDA-MB-435 = system: MDA-MB-435
MOLT-4 leukemia = system: MOLT-4 leukemia
NCI-H226 lung = system: NCI-H226 lung
NCI-H23 lung = system: NCI-H23 lung
NCI-H460 lung = system: NCI-H460 lung
NCI-H522 lung = system: NCI-H522 lung
NCI/ADR-RES ovarian = system: NCI/ADR-RES ovarian
OVCAR-3 ovarian = system: OVCAR-3 ovarian
OVCAR-4 ovarian = system: OVCAR-4 ovarian
OVCAR-5 ovarian = system: OVCAR-5 ovarian
OVCAR-8 ovarian = system: OVCAR-8 ovarian
PC-3 prostate = system: PC-3 prostate
RPMI-8226 leukemia = system: RPMI-8226 leukemia
RXF 393 renal = system: RXF 393 renal
SF-268 CNS = system: SF-268 CNS
SF-295 CNS = system: SF-295 CNS
SF-539 CNS = system: SF-539 CNS
SK-MEL-2 melanoma = system: SK-MEL-2 melanoma
SK-MEL-28 melanoma = system: SK-MEL-28 melanoma
SK-MEL-5 melanoma = system: SK-MEL-5 melanoma
SK-OV-3 ovarian = system: SK-OV-3 ovarian
SN12C renal = system: SN12C renal
SNB-19 CNS = system: SNB-19 CNS
SNB-75 CNS = system: SNB-75 CNS
SR leukemia = system: SR leukemia
SW-620 colon = system: SW-620 colon
T-47D breast = system: T-47D breast
TK-10 renal = system: TK-10 renal
U251 CNS = system: U251 CNS
UACC-257 melanoma = system: UACC-257 melanoma
UACC-62 melanoma = system: UACC-62 melanoma
UO-31 renal = system: UO-31 renal

## CC(=C(c1ccc(OCCN(C)C)cc1)c1ccc(OCCN(C)C)cc1)c1ccc(Cl)cc1
786-0 renal
  GI50: 0.591 µM
  TGI: 1.16 µM
A498 renal
  GI50: 3.2 µM
  TGI: 7.81 µM
A549 NSCLC
  GI50: 1.04 µM
  TGI: 4.14 µM
ACHN renal
  GI50: 0.709 µM
  TGI: 1.57 µM
BT-549 breast
  GI50: 3.17 µM
  TGI: 7.78 µM
CAKI-1 renal
  GI50: 0.652 µM
  TGI: 1.69 µM
CCRF-CEM leukemia
  GI50: 0.657 µM
  TGI: 1.84 µM
COLO 205 colon
  GI50: 0.621 µM
  TGI: 1.27 µM
DU-145 prostate
  GI50: 1.38 µM
  TGI: 4.9 µM
EKVX NSCLC
  GI50: 1.66 µM
  TGI: 6.11 µM
HCC-2998 colon
  GI50: 0.617 µM
  TGI: 1.31 µM
HCT-116 colon
  GI50: 0.544 µM
  TGI: 1.11 µM
HCT-15 colon
  GI50: 0.625 µM
  TGI: 1.36 µM
HL-60(TB) leukemia
  GI50: 0.708 µM
  TGI: 1.64 µM
HOP-62 NSCLC
  GI50: 3.3 µM
  TGI: 8.16 µM
HOP-92 NSCLC
  GI50: 0.74 µM
  TGI: 3.04 µM
HS 578T breast
  GI50: 1.37 µM
  TGI: 5.14 µM
HT29 colon
  GI50: 0.615 µM
  TGI: 1.49 µM
IGROV1 ovarian
  GI50: 0.826 µM
  TGI: 2.22 µM
K-562 leukemia
  GI50: 0.77 µM
  TGI: 7.71 µM
KM12 colon
  GI50: 1.45 µM
  TGI: 3.56 µM
LOX IMVI melanoma
  GI50: 0.542 µM
  TGI: 1.03 µM
M14 melanoma
  GI50: 0.614 µM
  TGI: 1.24 µM
MALME-3M melanoma
  GI50: 0.57 µM
  TGI: 1.08 µM
MCF7 breast
  GI50: 0.508 µM
  TGI: 1.02 µM
MDA-MB-231 breast
  GI50: 0.687 µM
  TGI: 1.56 µM
MDA-MB-435
  GI50: 0.577 µM
  TGI: 1.12 µM
MOLT-4 leukemia
  GI50: 0.713 µM
  TGI: 1.81 µM
NCI-H226 lung
  GI50: 4.44 µM
  TGI: 10 µM
NCI-H23 lung
  GI50: 2.6 µM
  TGI: 7.17 µM
NCI-H460 lung
  GI50: 0.756 µM
  TGI: 1.76 µM
NCI-H522 lung
  GI50: 0.756 µM
  TGI: 2.1 µM
NCI/ADR-RES ovarian
  GI50: 0.951 µM
  TGI: 2.95 µM
OVCAR-3 ovarian
  GI50: 0.756 µM
  TGI: 2.01 µM
OVCAR-4 ovarian
  GI50: 1.01 µM
  TGI: 3.1 µM
OVCAR-5 ovarian
  GI50: 1.34 µM
  TGI: 5.26 µM
OVCAR-8 ovarian
  GI50: 1.17 µM
  TGI: 4.36 µM
PC-3 prostate
  GI50: 0.932 µM
  TGI: 3.26 µM
RPMI-8226 leukemia
  GI50: 0.651 µM
  TGI: 1.58 µM
RXF 393 renal
  GI50: 0.706 µM
  TGI: 2.08 µM
SF-268 CNS
  GI50: 1.6 µM
  TGI: 6.21 µM
SF-295 CNS
  GI50: 0.653 µM
  TGI: 1.38 µM
SF-539 CNS
  GI50: 0.566 µM
  TGI: 1.1 µM
SK-MEL-2 melanoma
  GI50: 2.1 µM
  TGI: 4.82 µM
SK-MEL-28 melanoma
  GI50: 0.605 µM
  TGI: 1.13 µM
SK-MEL-5 melanoma
  GI50: 0.597 µM
  TGI: 1.09 µM
SK-OV-3 ovarian
  GI50: 4.8 µM
  TGI: 9.53 µM
SN12C renal
  GI50: 1.92 µM
  TGI: 5.74 µM
SNB-19 CNS
  GI50: 1.16 µM
  TGI: 4.36 µM
SNB-75 CNS
  GI50: 2.58 µM
  TGI: 7.6 µM
SR leukemia
  GI50: 0.638 µM
  TGI: 3.29 µM
SW-620 colon
  GI50: 0.569 µM
  TGI: 1.17 µM
T-47D breast
  GI50: 0.633 µM
  TGI: 1.41 µM
TK-10 renal
  GI50: 4.77 µM
  TGI: 9.68 µM
U251 CNS
  GI50: 0.631 µM
  TGI: 1.46 µM
UACC-257 melanoma
  GI50: 0.632 µM
  TGI: 1.27 µM
UACC-62 melanoma
  GI50: 0.576 µM
  TGI: 1.13 µM
UO-31 renal
  GI50: 0.847 µM
  TGI: 2.65 µM

## CC(=O)Oc1ccccc1C(=O)Nc1cc(C(C)C)ccc1C
786-0 renal
  GI50: 5.92 µM
  TGI: 26.6 µM
A498 renal
  GI50: 5.22 µM
  TGI: 33.8 µM
A549 NSCLC
  GI50: 5.01 µM
  TGI: > 100 µM
ACHN renal
  GI50: 4.43 µM
  TGI: 51.1 µM
BT-549 breast
  GI50: 2.63 µM
  TGI: 8.34 µM
CAKI-1 renal
  GI50: 4.5 µM
  TGI: 27.9 µM
CCRF-CEM leukemia
  GI50: 6.19 µM
  TGI: > 100 µM
COLO 205 colon
  GI50: 18.3 µM
  TGI: 36.2 µM
DU-145 prostate
  GI50: 8.38 µM
  TGI: > 100 µM
EKVX NSCLC
  GI50: 3.94 µM
  TGI: 30 µM
HCC-2998 colon
  GI50: 4.62 µM
  TGI: 20 µM
HCT-116 colon
  GI50: 4.49 µM
  TGI: 16.7 µM
HCT-15 colon
  GI50: 4.13 µM
  TGI: 16.3 µM
HL-60(TB) leukemia
  GI50: 4.66 µM
  TGI: 38.3 µM
HOP-62 NSCLC
  GI50: 11.2 µM
  TGI: 44.9 µM
HOP-92 NSCLC
  GI50: 2.54 µM
  TGI: 8.4 µM
HS 578T breast
  GI50: 4.67 µM
  TGI: 34.7 µM
HT29 colon
  GI50: 29.8 µM
  TGI: > 100 µM
IGROV1 ovarian
  GI50: 4.44 µM
  TGI: 45.7 µM
K-562 leukemia
  GI50: 3.8 µM
  TGI: 56.5 µM
KM12 colon
  GI50: 4.61 µM
  TGI: 32.3 µM
LOX IMVI melanoma
  GI50: 3.94 µM
  TGI: 15.2 µM
M14 melanoma
  GI50: 5.31 µM
  TGI: 22.4 µM
MALME-3M melanoma
  GI50: 2.97 µM
  TGI: 15.1 µM
MCF7 breast
  GI50: 3.83 µM
  TGI: 42.2 µM
MDA-MB-231 breast
  GI50: 9.92 µM
  TGI: 50.4 µM
MDA-MB-435
  GI50: 4.08 µM
  TGI: 23.4 µM
MOLT-4 leukemia
  GI50: 4.2 µM
  TGI: 29.7 µM
NCI-H226 lung
  GI50: 2.55 µM
  TGI: 10.4 µM
NCI-H23 lung
  GI50: 2.71 µM
  TGI: 9.84 µM
NCI-H460 lung
  GI50: 3.99 µM
  TGI: > 100 µM
NCI-H522 lung
  GI50: 2.34 µM
  TGI: 7.86 µM
NCI/ADR-RES ovarian
  GI50: 3.74 µM
  TGI: 24.8 µM
OVCAR-3 ovarian
  GI50: 4.38 µM
  TGI: > 100 µM
OVCAR-4 ovarian
  GI50: 3.44 µM
  TGI: > 100 µM
OVCAR-5 ovarian
  GI50: 20.4 µM
  TGI: > 100 µM
OVCAR-8 ovarian
  GI50: 4.9 µM
  TGI: > 100 µM
PC-3 prostate
  GI50: 4.31 µM
  TGI: 56.8 µM
RPMI-8226 leukemia
  GI50: 3.9 µM
  TGI: > 100 µM
RXF 393 renal
  GI50: 2.55 µM
  TGI: 9.78 µM
SF-268 CNS
  GI50: 7.14 µM
  TGI: > 100 µM
SF-295 CNS
  GI50: 4.46 µM
  TGI: 18.8 µM
SF-539 CNS
  GI50: 4.61 µM
  TGI: 19 µM
SK-MEL-2 melanoma
  GI50: 3.1 µM
  TGI: 12.2 µM
SK-MEL-28 melanoma
  GI50: 3.93 µM
  TGI: 20.6 µM
SK-MEL-5 melanoma
  GI50: 2.27 µM
  TGI: 5.74 µM
SK-OV-3 ovarian
  GI50: 5.88 µM
  TGI: 41.6 µM
SN12C renal
  GI50: 3.73 µM
  TGI: 20.7 µM
SNB-19 CNS
  GI50: 3.52 µM
  TGI: 23.1 µM
SNB-75 CNS
  GI50: 4.09 µM
  TGI: 27.6 µM
SR leukemia
  GI50: 3.56 µM
  TGI: 30.9 µM
SW-620 colon
  GI50: 9.34 µM
  TGI: 28.5 µM
T-47D breast
  GI50: 2.62 µM
  TGI: > 100 µM
TK-10 renal
  GI50: 2.96 µM
  TGI: 12.8 µM
U251 CNS
  GI50: 4.07 µM
  TGI: 28.5 µM
UACC-257 melanoma
  GI50: 4.33 µM
  TGI: 33 µM
UACC-62 melanoma
  GI50: 2.49 µM
  TGI: 7.59 µM
UO-31 renal
  GI50: 2.93 µM
  TGI: 11.7 µM
